Results from patent US10111428B2, “Nematocide containing lactonic ring and preparation method and application thereof” (priority 2015, dated 2018).
≈ marks a conversion by molar mass, not a printed value. Like-named read-outs stand apart in the source and are kept apart here.

Columns and labels:
Nematode eggs = experiment: Plant pathogenic nematode inhibition test by dipping: nematode egg hatch inhibition (NY/T 1154.5-2006); assay type: in vivo
Method: A plant pathogenic nematode inhibition test is conducted by dipping with the compounds in Table 1; and by referring to NY/T 1154.5-2006 (Part 5: Dipping Test for Insecticide Ovicidal Activity), the nematode egg hatch inhibition activity of the compounds is tested, as shown in Table 2: […]

Nematode J2 = experiment: Plant pathogenic nematode inhibition test by dipping: second-stage juveniles; assay type: in vivo
Earthworm = Earthworm toxicity test (Test Guidelines on Environmental Safety Assessment for Chemical Pesticides); assay type: in vivo; settings: cell adds 'low toxicity'
Method: (§1) According to the earthworm and edaphon toxicity test procedures as prescribed in the Test Guidelines on Environmental Safety Assessment for Chemical Pesticides, earthworm and edaphon toxicity tests are conducted on compounds 1 to 60 from Table 1. The simulative usual dose of pesticide in the edaphon test is 40 ppm.

Edaphon = Edaphon toxicity test (Test Guidelines on Environmental Safety Assessment for Chemical Pesticides)
Method: as §1

[1] = 15 d, 100 times of usual dose (simulative usual dose 40 ppm), cell adds 'low toxicity'
[2] = Test object: nematode eggs, dipping
[3] = Test object: nematode J2 (second-stage juveniles), dipping

For `O=C1CC(C(=O)OCCC(F)=C(F)F)C(c2ccccc2C(F)(F)F)O1` (centres unmarked) [Compound 46], the LC50 (Nematode eggs; in vivo) was 9.98 µg/mL (≈ 26.1 µM), the LC50 (Nematode J2; in vivo) was 11.24 µg/mL (≈ 29.4 µM) and the “Earthworm Toxicity LC50 (14 d)” value (Earthworm) was >10, low toxicity mg/L. The “Edaphon Toxicity (15 d) (Inhibition ratio when added amount is 100 times of usual dose)” value (Edaphon; [1]) was <50%, low toxicity.

`O=C1CC(C(=O)OCCC(F)=C(F)F)C(c2c(F)cccc2Cl)O1` (centres unmarked) [Compound 16] was tested, and the LC50 (Nematode eggs; in vivo) was 10.91 µg/mL (≈ 29.8 µM), the LC50 (Nematode J2; in vivo) was 12.25 µg/mL (≈ 33.4 µM) and the “Earthworm Toxicity LC50 (14 d)” value (Earthworm) was >10, low toxicity mg/L. The “Edaphon Toxicity (15 d) (Inhibition ratio when added amount is 100 times of usual dose)” value (Edaphon; [1]) was <50%, low toxicity.

For `O=C1CC(C(=O)OCCC(F)=C(F)F)C(c2c(F)c(F)c(F)c(F)c2F)O1` (centres unmarked) [Compound 29], the LC50 (Nematode eggs; in vivo) was 12.24 µg/mL (≈ 30.3 µM), the LC50 (Nematode J2; in vivo) was 13.86 µg/mL (≈ 34.3 µM) and the “Earthworm Toxicity LC50 (14 d)” value (Earthworm) was >10, low toxicity mg/L. The “Edaphon Toxicity (15 d) (Inhibition ratio when added amount is 100 times of usual dose)” value (Edaphon; [1]) was <50%, low toxicity.

`O=C1CC(C(=O)OCCC=C(F)F)C(c2ccccc2OC(F)(F)F)O1` (centres unmarked) [Compound 40] was tested, and the LC50 (Nematode eggs; in vivo) was 10.04 µg/mL (≈ 26.4 µM), the LC50 (Nematode J2; in vivo) was 13.40 µg/mL (≈ 35.2 µM) and the “Earthworm Toxicity LC50 (14 d)” value (Earthworm) was >10, low toxicity mg/L. The “Edaphon Toxicity (15 d) (Inhibition ratio when added amount is 100 times of usual dose)” value (Edaphon; [1]) was <50%, low toxicity.

For `O=C1CC(C(=O)OCCC(F)=C(F)F)C(c2ccc(F)c(Cl)c2)O1` (centres unmarked) [Compound 23], the LC50 (Nematode eggs; in vivo) was 10.23 µg/mL (≈ 27.9 µM), the LC50 (Nematode J2; in vivo) was 11.24 µg/mL (≈ 30.7 µM) and the “Earthworm Toxicity LC50 (14 d)” value (Earthworm) was >10, low toxicity mg/L. For the same compound, the “Edaphon Toxicity (15 d) (Inhibition ratio when added amount is 100 times of usual dose)” value (Edaphon; [1]) was <50%, low toxicity.

`CCCc1ccc(C2OC(=O)CC2C(=O)OCCC(F)=C(F)F)cc1` (centres unmarked) [Compound 5] was tested, and the LC50 (Nematode eggs; in vivo) was 8.02 µg/mL (≈ 22.5 µM), the LC50 (Nematode J2; in vivo) was 9.777 µg/mL (≈ 27.4 µM) and the “Earthworm Toxicity LC50 (14 d)” value (Earthworm) was >10, low toxicity mg/L. The “Edaphon Toxicity (15 d) (Inhibition ratio when added amount is 100 times of usual dose)” value (Edaphon; [1]) was <50%, low toxicity.

For `COc1ccccc1C1OC(=O)CC1C(=O)OCCC=C(F)F` (centres unmarked) [Compound 34], the LC50 (Nematode eggs; [2]) was 12.42 µg/mL (≈ 38.1 µM), the LC50 (Nematode J2; [3]) was 13.10 µg/mL (≈ 40.1 µM) and the “Earthworm Toxicity LC50 (14 d)” value (Earthworm) was >10, low toxicity mg/L. The “Edaphon Toxicity (15 d) (Inhibition ratio when added amount is 100 times of usual dose)” value (Edaphon; [1]) was <50%, low toxicity.

`O=C1CC(C(=O)OCCC(F)=C(F)F)C(c2cccc(F)c2)O1` (centres unmarked) [Compound 27] was tested, and the LC50 (Nematode eggs; [2]) was 7.85 µg/mL (≈ 23.6 µM), the LC50 (Nematode J2; [3]) was 8.91 µg/mL (≈ 26.8 µM) and the “Earthworm Toxicity LC50 (14 d)” value (Earthworm) was >10, low toxicity mg/L. The “Edaphon Toxicity (15 d) (Inhibition ratio when added amount is 100 times of usual dose)” value (Edaphon) was <50%, low toxicity.

In the case of `COc1cccc(C2OC(=O)CC2C(=O)OCCC=C(F)F)c1` (centres unmarked) [Compound 36], the LC50 (Nematode eggs; in vivo) is reported as 11.24 µg/mL (≈ 34.4 µM), the LC50 (Nematode J2; in vivo) is reported as 12.64 µg/mL (≈ 38.7 µM) and the “Earthworm Toxicity LC50 (14 d)” value (Earthworm) is reported as >10, low toxicity mg/L. For the same compound, the “Edaphon Toxicity (15 d) (Inhibition ratio when added amount is 100 times of usual dose)” value (Edaphon; [1]) was <50%, low toxicity.

With `O=C1CC(C(=O)OCCC(F)=C(F)F)C(c2ccc(Cl)cc2Cl)O1` (centres unmarked) [Compound 9] the LC50 (Nematode eggs; in vivo) was 10.36 µg/mL (≈ 27 µM), the LC50 (Nematode J2; in vivo) was 13.14 µg/mL (≈ 34.3 µM) and the “Earthworm Toxicity LC50 (14 d)” value (Earthworm) was >10, low toxicity mg/L. The “Edaphon Toxicity (15 d) (Inhibition ratio when added amount is 100 times of usual dose)” value (Edaphon; [1]) was <50%, low toxicity.

For `O=C1CC(C(=O)OCCC(F)=C(F)F)C(c2cc(F)ccc2F)O1` (centres unmarked) [Compound 28], the LC50 (Nematode eggs; in vivo) was 13.23 µg/mL (≈ 37.8 µM), the LC50 (Nematode J2; in vivo) was 15.07 µg/mL (≈ 43 µM) and the “Earthworm Toxicity LC50 (14 d)” value (Earthworm) was >10, low toxicity mg/L. The “Edaphon Toxicity (15 d) (Inhibition ratio when added amount is 100 times of usual dose)” value (Edaphon; [1]) was <50%, low toxicity.

With `O=C1CC(C(=O)OCCC(F)=C(F)F)C(c2cc(F)cc(Br)c2)O1` (centres unmarked) [Compound 22] the LC50 (Nematode eggs; in vivo) was 9.57 µg/mL (≈ 23.3 µM), the LC50 (Nematode J2; in vivo) was 10.85 µg/mL (≈ 26.4 µM) and the “Earthworm Toxicity LC50 (14 d)” value (Earthworm) was >10, low toxicity mg/L. The “Edaphon Toxicity (15 d) (Inhibition ratio when added amount is 100 times of usual dose)” value (Edaphon; [1]) was <50%, low toxicity.

With `O=C1CC(C(=O)OCCC(F)=C(F)F)C(c2cccc([N+](=O)[O-])c2)O1` (centres unmarked) [Compound 57] the LC50 (Nematode eggs; in vivo) was 12.12 µg/mL (≈ 33.7 µM), the LC50 (Nematode J2; in vivo) was 14.23 µg/mL (≈ 39.6 µM) and the “Earthworm Toxicity LC50 (14 d)” value (Earthworm) was >10, low toxicity mg/L. The “Edaphon Toxicity (15 d) (Inhibition ratio when added amount is 100 times of usual dose)” value (Edaphon; [1]) was <50%, low toxicity.

For `Nc1ccccc1C1OC(=O)CC1C(=O)OCCC(F)=C(F)F` (centres unmarked) [Compound 59], the LC50 (Nematode eggs; in vivo) was 11.24 µg/mL (≈ 34.1 µM), the LC50 (Nematode J2; in vivo) was 13.24 µg/mL (≈ 40.2 µM) and the “Earthworm Toxicity LC50 (14 d)” value (Earthworm) was >10, low toxicity mg/L. For the same compound, the “Edaphon Toxicity (15 d) (Inhibition ratio when added amount is 100 times of usual dose)” value (Edaphon; [1]) was <50%, low toxicity.

For `O=C1CC(C(=O)OCCC(F)=C(F)F)C(c2ccc(Oc3ccc(Cl)cc3)cc2)O1` (centres unmarked) [Compound 54], the LC50 (Nematode eggs; in vivo) was 12.40 µg/mL (≈ 28.1 µM), the LC50 (Nematode J2; in vivo) was 14.16 µg/mL (≈ 32.1 µM) and the “Earthworm Toxicity LC50 (14 d)” value (Earthworm) was >10, low toxicity mg/L. The “Edaphon Toxicity (15 d) (Inhibition ratio when added amount is 100 times of usual dose)” value (Edaphon; [1]) was <50%, low toxicity.

In the case of `O=C1CC(C(=O)OCCC(F)=C(F)F)C(c2ccc(Oc3ccc(F)cc3)cc2)O1` (centres unmarked) [Compound 55], the LC50 (Nematode eggs; in vivo) is reported as 13.24 µg/mL (≈ 31.2 µM), the LC50 (Nematode J2; in vivo) is reported as 15.36 µg/mL (≈ 36.2 µM) and the “Earthworm Toxicity LC50 (14 d)” value (Earthworm) is reported as >10, low toxicity mg/L. For the same compound, the “Edaphon Toxicity (15 d) (Inhibition ratio when added amount is 100 times of usual dose)” value (Edaphon; [1]) was <50%, low toxicity.

`O=C1CC(C(=O)OCCC(F)=C(F)F)C(c2ccc(Cl)cc2F)O1` (centres unmarked) [Compound 21] was tested, and the LC50 (Nematode eggs; in vivo) was 11.98 µg/mL (≈ 32.7 µM), the LC50 (Nematode J2; in vivo) was 13.74 µg/mL (≈ 37.5 µM) and the “Earthworm Toxicity LC50 (14 d)” value (Earthworm) was >10, low toxicity mg/L. For the same compound, the “Edaphon Toxicity (15 d) (Inhibition ratio when added amount is 100 times of usual dose)” value (Edaphon; [1]) was <50%, low toxicity.
